Measured values from US9493396B2, “Substituted naphthalene compounds as calcium sensing receptor modulators” (LUPIN ATLANTIS HOLDINGS SA, priority 2013, dated 2016).
Counter-ions that a name gives are not always drawn.

Target: T1, Calcium sensing receptor (hCaSR) (Homo sapiens, UniProt P41180)
T1 construct: expressed in transfected cells; host or cells: HEK293 (stably transfected)
T1 sequence (P41180 20-1078): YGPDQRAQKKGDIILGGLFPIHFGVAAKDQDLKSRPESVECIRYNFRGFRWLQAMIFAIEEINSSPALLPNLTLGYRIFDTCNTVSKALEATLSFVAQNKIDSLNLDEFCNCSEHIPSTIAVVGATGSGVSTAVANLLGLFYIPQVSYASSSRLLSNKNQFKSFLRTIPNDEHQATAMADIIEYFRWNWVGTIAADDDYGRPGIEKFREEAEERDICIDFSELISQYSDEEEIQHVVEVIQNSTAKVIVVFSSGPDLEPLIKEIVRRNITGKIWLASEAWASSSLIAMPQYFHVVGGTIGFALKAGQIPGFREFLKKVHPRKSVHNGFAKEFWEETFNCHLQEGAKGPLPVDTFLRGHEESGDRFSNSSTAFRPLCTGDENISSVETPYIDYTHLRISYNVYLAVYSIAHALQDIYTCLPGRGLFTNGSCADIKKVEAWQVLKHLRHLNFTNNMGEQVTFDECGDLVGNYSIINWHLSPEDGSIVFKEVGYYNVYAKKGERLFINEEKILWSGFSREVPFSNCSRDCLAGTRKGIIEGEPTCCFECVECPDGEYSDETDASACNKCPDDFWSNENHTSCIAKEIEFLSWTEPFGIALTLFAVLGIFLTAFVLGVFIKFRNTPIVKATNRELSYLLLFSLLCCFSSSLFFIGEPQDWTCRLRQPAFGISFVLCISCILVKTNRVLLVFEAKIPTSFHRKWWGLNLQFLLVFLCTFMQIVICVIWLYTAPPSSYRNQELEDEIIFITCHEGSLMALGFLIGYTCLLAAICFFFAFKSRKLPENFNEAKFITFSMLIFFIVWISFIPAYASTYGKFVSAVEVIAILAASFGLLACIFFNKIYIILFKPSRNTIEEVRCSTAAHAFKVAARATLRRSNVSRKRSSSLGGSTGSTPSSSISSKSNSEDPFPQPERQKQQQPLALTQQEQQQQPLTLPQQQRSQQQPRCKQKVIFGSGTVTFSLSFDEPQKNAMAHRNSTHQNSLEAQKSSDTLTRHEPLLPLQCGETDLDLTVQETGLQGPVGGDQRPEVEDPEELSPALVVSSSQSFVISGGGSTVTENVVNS
Experiment: In-vitro assay of calcimimetics through modulation of calcium sensing receptor (intracellular calcium increase, FLIPR)
Assay type: cell-based
Conditions: stably transfected HEK293 cells expressing hCaSR; Fluo4NW dye; 0.3 mM CaCl2; 8-point assay; read-out: EC50 in range
Summary of the method: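 Stably transfected HEK293 cells expressing hCaSR, loaded 30 min with Fluo4NW dye. Intracellular calcium rise measured on FLIPR in 20 mM HEPES buffer with 0.3 mM CaCl2. EC50 derived from 8-point concentration series.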

EC50	Structure (SMILES)
< 0.02 µM	CC(N[C@H](C)c1cccc(Cl)c1)c1cc(-c2ccc(OC(F)F)cc2)c2ccccc2c1 (stereo partly drawn) [Example 22, (1R)-1-(3-Chlorophenyl)-N-1-(4-(4-(difluoromethoxy)phenyl)naphthalen-2-yl)ethyl)ethanamine hydrochloride]
0.05 to 0.4 µM	COc1cccc([C@@H](C)NCc2cc(-c3ccc(C)c(C(=O)O)c3C)c3ccccc3c2)c1 [Example 109, (R)-3-(3-(((1-(3-Methoxyphenyl)ethyl)amino)methyl)naphthalen-1-yl)-2,6-dimethylbenzoic acid hydrochloride]
0.05 to 0.4 µM	COc1cccc([C@@H](C)NC(C)c2cc(-c3cc(C)cc(C(=O)O)c3)c3ccccc3c2)c1 (stereo partly drawn) [Example 125, 3-(3-(1-(((R)-1-(3-Methoxyphenyl)ethyl)amino)ethyl)naphthalen-1-yl)-5-methylbenzoic acid hydrochloride]
0.05 to 0.4 µM	COc1cccc([C@@H](C)NCc2cc(-c3cccc(C(=O)O)c3C)c3ccccc3c2)c1 [Example 101, (R)-3-(3-(((1-(3-Methoxyphenyl)ethyl)amino)methyl)naphthalen-1-yl)-2-methylbenzoic acid hydrochloride]
< 0.02 µM	CC(N[C@H](C)c1cccc(Cl)c1)c1cc(-c2ccc(C(F)(F)F)cc2)c2ccccc2c1 (stereo partly drawn) [Example 10, (1R)-1-(3-Chlorophenyl)-N-(1-(4-(4-(trifluoromethyl)phenyl)naphthalen-2-yl)ethyl)ethanamine hydrochloride]
< 0.02 µM	COc1cccc([C@@H](C)NC(C)c2cc(-c3ccc(OC)c(F)c3)c3ccccc3c2)c1 (stereo partly drawn) [Example 7, 1-(4-(3-Fluoro-4-methoxyphenyl)naphthalen-2-yl)-N-((R)-1-(3-methoxyphenyl)ethyl)ethanamine hydrochloride]
< 0.02 µM	COc1cccc([C@@H](C)NCc2cc(-c3ccc(F)c(CCC(=O)O)c3)c3ccccc3c2)c1 [Example 110, hydrochloride]
0.02 to 0.05 µM	CCOc1cccc([C@@H](C)NCc2cc(-c3ccc(Cl)c(C(=O)O)c3)c3ccccc3c2)c1 [Example 100, (R)-2-Chloro-5-(3-(((1-(3-ethoxyphenyl)ethyl)amino)methyl)naphthalen-1-yl)benzoic acid hydrochloride]
